Measured values from ChEMBL document CHEMBL1201862, “PubChem BioAssay data set” (2004).
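Compound exposure: 48 hours, 5 concentrations, 96-well plates. GI50 = concentration required for 50% inhibition of growth.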 Active and inactive are the calls of the source. No stated cut-off is given here; in the data, active = GI50 up to about 1.1 µM and inactive = higher.

Assays:
Assay in all cases: NCI tumour cell line growth inhibition, 48 h
[1] = tested on: UO-31
[2] = tested on: LOX IMVI
[3] = tested on: SF-268
[4] = tested on: A549
[5] = tested on: SNB-75
[6] = tested on: IGROV-1
[7] = tested on: HOP-92
[8] = tested on: SK-MEL-5
[9] = tested on: HL-60
[10] = tested on: OVCAR-5
[11] = tested on: SF-295
[12] = tested on: NCI-H23
[13] = tested on: SK-MEL-2
[14] = tested on: A498
[15] = tested on: COLO 205
[16] = tested on: SW-620
[17] = tested on: MCF7
[18] = tested on: PC-3
[19] = tested on: MDA-MB-435

SMILES | GI50 [1] | GI50 [2] | GI50 [3] | GI50 [4] | GI50 [5] | GI50 [6] | GI50 [7] | GI50 [8] | GI50 [9] | GI50 [10] | GI50 [11] | GI50 [12] | GI50 [13] | GI50 [14] | GI50 [15] | GI50 [16] | GI50 [17] | GI50 [18] | GI50 [19]
O=[N+]([O-])c1ccc(COc2cccc3cccnc23)cc1 | 10.1 µM (inactive) | 11.7 µM (inactive) | 19.9 µM (inactive) | 31 µM (inactive) | 26.9 µM (inactive) | 22.5 µM (inactive) | 31 µM (inactive) | 17.1 µM (inactive) | 5.69 µM (inactive) | 38.5 µM (inactive) | 26.6 µM (inactive) | 20 µM (inactive) | 14.6 µM (inactive) | 34.8 µM (inactive) | 17.2 µM (inactive) |  |  |  | 
Nc1ncnc2c1ncn2C1CCC(CO)O1 (stereo unspecified) | > 100 µM (inactive) | > 100 µM (inactive) | > 60.5 µM (inactive) | > 100 µM (inactive) | > 100 µM (inactive) | > 100 µM (inactive) | > 79.8 µM (inactive) | > 100 µM (inactive) | > 100 µM (inactive) | > 100 µM (inactive) | > 79.4 µM (inactive) | > 66.7 µM (inactive) | > 100 µM (inactive) | > 85.1 µM (inactive) | > 100 µM (inactive) | > 100 µM (inactive) | > 100 µM (inactive) |  | 
Nc1nc(=O)[nH]c2c1cnn2C1CCCCO1 (stereo unspecified) | > 100 µM (inactive) | > 100 µM (inactive) | > 100 µM (inactive) | > 100 µM (inactive) | > 100 µM (inactive) | > 100 µM (inactive) | > 100 µM (inactive) | 70.3 µM (inactive) | 38.4 µM (inactive) | 64 µM (inactive) | > 100 µM (inactive) | > 100 µM (inactive) | > 100 µM (inactive) | > 100 µM (inactive) | > 100 µM (inactive) | > 100 µM (inactive) |  |  | 
CCC(C)CN1C(=O)NC(Cc2ccccc2)C1=O (stereo unspecified) | > 100 µM (inactive) | > 100 µM (inactive) | > 100 µM (inactive) | > 100 µM (inactive) | > 100 µM (inactive) |  | 19.4 µM (inactive) |  | > 10 µM (inactive) | > 100 µM (inactive) | > 100 µM (inactive) | > 100 µM (inactive) | > 100 µM (inactive) |  |  | > 100 µM (inactive) |  |  | 
O=C(Nc1ccc(Cl)cc1Cl)/C(Cl)=C1/Sc2ccccc2NC1=O | 30 µM (inactive) | 40.6 µM (inactive) | 26.7 µM (inactive) | 39.3 µM (inactive) | 18 µM (inactive) | 28.6 µM (inactive) | 16.8 µM (inactive) | 19.3 µM (inactive) | 21.9 µM (inactive) | 52.6 µM (inactive) |  | 19.6 µM (inactive) | 15.2 µM (inactive) | 66.4 µM (inactive) | 26.6 µM (inactive) | 33.7 µM (inactive) |  |  | 
CC(C)=CC(=O)Cc1nc2ccccc2[nH]c1=O | 68.7 µM (inactive) | > 100 µM (inactive) | > 100 µM (inactive) | > 100 µM (inactive) | 40.3 µM (inactive) | > 100 µM (inactive) | 22.4 µM (inactive) | > 100 µM (inactive) | 49.5 µM (inactive) | > 100 µM (inactive) | 64 µM (inactive) | > 100 µM (inactive) | > 100 µM (inactive) | > 100 µM (inactive) | > 100 µM (inactive) | > 100 µM (inactive) |  |  | 
C#CCC1(C(=O)OCC)C(=O)c2ccccc2N(C)C1=O (stereo unspecified) | 30.8 µM (inactive) | > 100 µM (inactive) | 58.7 µM (inactive) |  | 16.6 µM (inactive) | > 100 µM (inactive) | 36.6 µM (inactive) | 70.3 µM (inactive) | 60.1 µM (inactive) |  | > 100 µM (inactive) | 14.7 µM (inactive) | > 100 µM (inactive) | 67.5 µM (inactive) | > 100 µM (inactive) | > 100 µM (inactive) |  |  | 
Nc1nc(N)c2nc(-c3ccco3)cnc2n1 | 38.5 µM (inactive) | 30.9 µM (inactive) | > 100 µM (inactive) | 34.5 µM (inactive) | 28.4 µM (inactive) | 43.1 µM (inactive) | 40 µM (inactive) | 52.5 µM (inactive) | 28.3 µM (inactive) | > 100 µM (inactive) | 60.3 µM (inactive) | 75 µM (inactive) |  | 42.2 µM (inactive) | 65.6 µM (inactive) |  |  |  | 
C/C(CCn1[nH]c(=O)ccc1=O)=N\NC(=O)C(=O)NN | > 100 µM (inactive) | > 100 µM (inactive) | > 100 µM (inactive) | > 100 µM (inactive) |  | > 100 µM (inactive) |  | > 100 µM (inactive) | > 100 µM (inactive) | > 100 µM (inactive) | > 100 µM (inactive) | > 100 µM (inactive) | > 100 µM (inactive) | 43.8 µM (inactive) | > 100 µM (inactive) | > 100 µM (inactive) |  |  | 
O=C(O)[C@@H](NS(=O)(=O)c1ccc(F)cc1)c1ccccc1 | > 100 µM (inactive) | > 100 µM (inactive) | > 100 µM (inactive) | > 100 µM (inactive) | > 100 µM (inactive) | > 100 µM (inactive) |  | > 100 µM (inactive) |  | > 100 µM (inactive) | > 100 µM (inactive) | > 100 µM (inactive) | > 100 µM (inactive) |  | > 100 µM (inactive) | > 100 µM (inactive) |  |  | 
C=CCc1cc(OC)c2c(c1)C(OC(C)=O)CC(c1ccc(OC)c(OC)c1)O2 (stereo unspecified) | > 100 µM (inactive) |  | > 100 µM (inactive) | > 100 µM (inactive) | 17.1 µM (inactive) | > 100 µM (inactive) | 23.4 µM (inactive) | > 100 µM (inactive) | > 100 µM (inactive) | > 100 µM (inactive) | 67.3 µM (inactive) | 46.7 µM (inactive) |  |  | > 100 µM (inactive) | > 100 µM (inactive) |  |  | 
C=C(N=[N+]=[N-])c1cn(C2CC(O)C(CO)O2)c(=O)[nH]c1=O (stereo unspecified) | > 100 µM (inactive) | > 100 µM (inactive) |  | > 100 µM (inactive) | > 100 µM (inactive) | > 100 µM (inactive) | > 100 µM (inactive) | > 100 µM (inactive) | > 100 µM (inactive) | > 100 µM (inactive) | > 100 µM (inactive) | > 100 µM (inactive) | > 100 µM (inactive) |  | > 100 µM (inactive) | > 100 µM (inactive) |  |  | 
Cc1c(/C=N/N(C)C)oc2c1cc(O)c1ncccc12 | 2.08 µM (inactive) | 4.5 µM (inactive) | 4.01 µM (inactive) | 5.01 µM (inactive) | 6.92 µM (inactive) | 14.3 µM (inactive) | 10.7 µM (inactive) | 6.9 µM (inactive) | 2.13 µM (inactive) | 7.24 µM (inactive) | 9.91 µM (inactive) | 3.61 µM (inactive) | 12.6 µM (inactive) | 25.8 µM (inactive) | 35.8 µM (inactive) | 4.61 µM (inactive) |  |  | 
COc1ccc(Cc2c3cc(OC)c(OC)cc3cc[n+]2C)cc1 | > 34 µM (inactive) | > 14.2 µM (inactive) | 4.7 µM (inactive) | 9.35 µM (inactive) | 9.25 µM (inactive) | 38.7 µM (inactive) | 23.1 µM (inactive) | 21.2 µM (inactive) | 1.21 µM (inactive) | > 100 µM (inactive) | 5.73 µM (inactive) | 8.3 µM (inactive) | > 29.1 µM (inactive) | > 100 µM (inactive) | 5.21 µM (inactive) | > 100 µM (inactive) |  |  | 
Nc1nc(SCc2ccccc2Cl)c2[nH]cnc2n1 | 77.6 µM (inactive) | 44.2 µM (inactive) | 58.7 µM (inactive) | 73.1 µM (inactive) |  | 41.8 µM (inactive) |  | 48.8 µM (inactive) | 36.4 µM (inactive) | 96.4 µM (inactive) | 58.6 µM (inactive) | 66.1 µM (inactive) | 80.4 µM (inactive) | 15 µM (inactive) | 91.6 µM (inactive) | > 100 µM (inactive) |  |  | 
CCOC(=O)C(=O)NCCCN1CCOCC1 | > 100 µM (inactive) | > 100 µM (inactive) | > 100 µM (inactive) | > 100 µM (inactive) | > 100 µM (inactive) | > 100 µM (inactive) | > 100 µM (inactive) | > 100 µM (inactive) | > 100 µM (inactive) | > 100 µM (inactive) | > 100 µM (inactive) | > 100 µM (inactive) | > 100 µM (inactive) | > 100 µM (inactive) | > 100 µM (inactive) | > 100 µM (inactive) |  |  | 
COC(=O)c1ccccc1NC(=O)C(=O)CC(=O)CC(c1ccccc1)c1c(O)c2ccccc2oc1=O (stereo unspecified) | > 100 µM (inactive) |  | > 100 µM (inactive) | > 100 µM (inactive) |  | > 100 µM (inactive) |  | > 100 µM (inactive) | > 100 µM (inactive) | > 100 µM (inactive) | > 100 µM (inactive) | > 100 µM (inactive) | > 100 µM (inactive) | 47.4 µM (inactive) | > 100 µM (inactive) | > 100 µM (inactive) |  |  | 
COC(=O)C(Cc1cn(C(C)n2cc(CC(NC(C)=O)C(=O)OC)c3ccccc32)c2ccccc12)NC(C)=O (stereo unspecified) | 66.4 µM (inactive) |  | 48.1 µM (inactive) | > 100 µM (inactive) | 0.116 µM (active) | 12.9 µM (inactive) | 52.5 µM (inactive) | 73.3 µM (inactive) |  | > 100 µM (inactive) | 60.7 µM (inactive) | > 100 µM (inactive) | > 100 µM (inactive) | > 100 µM (inactive) | > 100 µM (inactive) | > 100 µM (inactive) |  | > 100 µM (inactive) | > 100 µM (inactive)
COc1ccc(/C=C/c2cc(OC)c(OCc3ccccc3)c(OC)c2)cc1 | 52.1 µM (inactive) |  | > 100 µM (inactive) | > 100 µM (inactive) | > 100 µM (inactive) | > 100 µM (inactive) | 89.7 µM (inactive) |  |  | 8.99 µM (inactive) |  | 64 µM (inactive) | > 100 µM (inactive) | > 100 µM (inactive) | > 100 µM (inactive) | > 100 µM (inactive) |  |  | 
